Measured values taken from US20250170100A1, “MONOACYLGLYCEROL LIPASE INHIBITORS AND USE THEREOF FOR THE TREATMENT OF ANXIETY AND RELATED CONDITIONS” (Psy Therapeutics, Inc., priority 2021, published 2025).

target: T1, human MAGL (Homo sapiens (Human), UniProt Q99685); test: MAGL inhibition potency assay with 4NPA substrate (methods of Table C); format: biochemical; conditions: Method 1: Reaction Biology MAGL enzyme, 6 nM; read-out: MAGL Potency (Detection Method)
Source text: Cayman's Monoacylglycerol Lipase Inhibitor Screening Assay provides a method for screening human MAGL inhibitors. MAGL hydrolyzes 4-nitrophenylacetate resulting in a yellow product, 4-nitrophenol, with an absorbance of 405-412 nm. The monoacylglycerol lipase inhibitor screening assay kit from Cayman Chemical was used to measure the MAGL potency for the compounds in Table 3 and Table 4. Cayman's Monoacylglycerol Lipase Inhibitor Screening Assay provides a method for screening human MAGL inhibitors. MAGL hydrolyzes 4-nitrophenylacetate resulting in a yellow product, 4-nitrophenol, with an absorbance of 405-412 nm. MAGL Inhibition was measured by the following assay. Monoacylglycerol Lipase (MAGL) inhibition was measured using recombinant MAGL enzyme (aa 2-303 RBC, internal preparation) and the substrate 4-Nitrophenyl acetate (4NPA) (Sigma-Aldrich, N8130). Hydrolysis of the substrate in the presence of the enzyme was measured by absorbance at 405 nm. 10 μL of assay buffer (10 mM Tris pH 7.5, 1 mM EDTA, 0.9% DMSO) was added to a black 384-well non-binding plate with clear bottom (Greiner, 781906) for each reaction. […] DMSO control wells were included for reference. A 10.8 nM (1.8×) MAGL mix in assay buffer was prepared, with […] added to each reaction well, for a final assay concentration of 6 nM. No enzyme wells received 25 μL of buffer. Plate was incubated at room temperature for 30 minutes. 35 mM solution of 4NPA in methanol was prepared daily. A 4.5×4NPA substrate solution was prepared in assay buffer and 10 μL was added to each reaction well, for a final assay concentration of 0.25 mM. Plate was spun for 1 minute at 1000 rpm before measuring absorbance using a CLARIOstar plate reader (BMG Labtech). A kinetic reading at 405 nm was done every minute for 30 minutes. Data was analyzed using the linear slope of the reaction progress curve and the average of the no-enzyme wells (background) was subtracted from the data. The background-subtracted slope data was converted to % activity using the average of wells with enzyme and DMSO vehicle. IC50s were calculated using GraphPad software (Sigmoidal dose response, variable slope equation). […] Table 5 provides potency measurements of MAGL inhibition measured using the Potency Assay of Example 18 above, with the following modifications described in Table C. [table]
Target sequence in this assay (Q99685 2-303): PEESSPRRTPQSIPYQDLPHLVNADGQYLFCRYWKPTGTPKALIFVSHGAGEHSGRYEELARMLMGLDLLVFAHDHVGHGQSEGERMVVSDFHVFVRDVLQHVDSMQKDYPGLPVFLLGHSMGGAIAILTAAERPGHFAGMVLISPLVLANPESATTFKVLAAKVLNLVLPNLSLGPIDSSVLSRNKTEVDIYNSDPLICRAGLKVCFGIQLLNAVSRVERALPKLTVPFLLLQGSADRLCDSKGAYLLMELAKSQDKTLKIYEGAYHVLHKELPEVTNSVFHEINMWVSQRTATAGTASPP

IC50, < 0.05 µM:
Cc1cc(C2CC3(C2)CN(C(=O)c2cc(O)c(F)cc2F)C3)n(-c2ccccc2C)n1 [Compound 126, (2,4-difluoro-5-hydroxyphenyl) (6-(3-methyl-1-(o-tolyl)-1H-pyrazol-5-yl)-2-azaspiro[3.3]heptan-2-yl) methanone]
Cc1cc(C2CC3(C2)CN(C(=O)c2cc(O)ccc2C#N)C3)n(-c2ccccc2C)n1 [Compound 128, 4-hydroxy-2-({6-[3-methyl-1-(o-tolyl)-5-pyrazolyl]-2-aza-2-spiro[3.3]heptyl}carbonyl)benzonitrile]

same assay, conditions: Method 6: Reaction Biology MAGL enzyme, 6 nM; read-out: Potency (MAGL inhibition)

IC50, > 10 µM:
Cc1cnn(C2CC3(C2)CN(C(=O)c2cc(O)ccc2F)C3)c1-c1ccccc1Cl [Compound 404]
Cc1ccccc1-c1c(C)cnn1C1CC2(C1)CN(C(=O)c1cc(O)ccc1F)C2 [Compound 405]
Cc1cc(-c2ccccc2C)n(C2CC3(C2)CN(C(=O)c2cc(O)ccc2F)C3)n1 [Compound 406]
Cc1cn(C2CC3(C2)CN(C(=O)c2cc(O)ccc2F)C3)nc1-c1ccccc1Cl [Compound 416]
O=C(c1ccc(F)cc1OC1CC1)N1CC2(CC(n3nc(C(F)(F)F)cc3-c3ccccc3C(F)(F)F)C2)C1 [Compound 424, (2-cyclopropoxy-4-fluorophenyl) (6-(3-(trifluoromethyl)-5-(2-(trifluoromethyl)phenyl)-1H-pyrazol-1-yl)-2-azaspiro[3.3]heptan-2-yl) methanone]
Cc1ccccc1-c1ccn(C2CC3(C2)CN(C(=O)c2cc(O)ccc2F)C3)n1 [Compound 441]
Cc1ccccc1-c1cc(C)n(C2CC3(C2)CN(C(=O)c2cc(O)ccc2F)C3)n1 [Compound 442]
O=C(c1cc(O)ccc1F)N1CC2(CC(n3cc(C4CC4)c(-c4ccccc4Cl)n3)C2)C1 [Compound 445]

same assay, conditions: Method 14: Reaction Biology MAGL enzyme, 6 nM; read-out: MAGL Potency (Detection Method)

IC50, < 0.05 µM:
Cc1cc(C2CC3(C2)CN(C(=O)c2cc(O)ccc2F)C3)n(-c2cc(F)ccc2C)n1 [Compound 365, (2-fluoro-5-hydroxyphenyl) {6-[1-(5-fluoro-2-tolyl)-3-methyl-5-pyrazolyl]-2-aza-2-spiro[3.3]heptyl}methanone]
Cc1cc(C2CC3(C2)CN(C(=O)c2cc(O)ccc2F)C3)n(-c2ccccc2C(F)(F)F)n1 [Compound 366, (2-fluoro-5-hydroxyphenyl) (6-{3-methyl-1-[o-(trifluoromethyl)phenyl]-5-pyrazolyl}-2-aza-2-spiro[3.3]heptyl) methanone]

IC50, 0.05 to 0.15 µM:
Cc1ccccc1-n1nccc1C1CC2(C1)CN(C(=O)c1cc(O)ccc1F)C2 [Compound 367, (2-fluoro-5-hydroxyphenyl) (6-(1-(o-tolyl)-1H-pyrazol-5-yl)-2-azaspiro [3.3]heptan-2-yl) methanone]

same assay, conditions: Method 14: Reaction Biology MAGL enzyme, 6 nM; read-out: Potency (MAGL inhibition)

IC50, > 10 µM:
Cc1cc(C2CC3(C2)CN(C(=O)c2cc4c(cc2F)CCO4)C3)n(-c2ccccc2C)n1 [Compound 368]
O=C(c1cc(O)ccc1F)N1CC2(CC(C(=O)N3CCOCC3)C2)C1 [Compound 384]
O=C(c1cc(O)ccc1F)N1CC2(CC(C(=O)N3CCCC3)C2)C1 [Compound 388]
O=C(c1cc(O)ccc1F)N1CC2(CC(C(=O)N3CCC4(COC4)C3)C2)C1 [Compound 391]
O=C(NCC1COC1)C1CC2(C1)CN(C(=O)c1cc(O)ccc1F)C2 [Compound 395]
O=C(c1cc(O)ccc1F)N1CC2(CC(C(=O)N3CCC4(CCCO4)C3)C2)C1 (centres unmarked) [Compound 400]
Cc1cc(C2CC3(C2)CN(C(=O)c2ccc4c(c2)OCC4)C3)n(-c2ccccc2C)n1 [Compound 402]
Cc1cc(C2CC3(C2)CN(C(=O)c2cccc4c2CCO4)C3)n(-c2ccccc2C)n1 [Compound 403]

same assay, conditions: read-out: Potency (MAGL inhibition)

IC50, > 10 µM:
Cc1cc(C2CC3(C2)CN(Cc2cc(O)ccc2F)C3)n(-c2ccccc2C)n1 [Compound 150, 4-fluoro-3-((6-(3-methyl-1-(o-tolyl)-1H-pyrazol-5-yl)-2-azaspiro[3.3]heptan-2-yl)methyl) phenol]

target: T1, human MAGL; test: MAGL reversible inhibition assay (washout); format: biochemical; conditions: pre-washout compound concentration: 1 μM
Method: The reversible mechanism of MAGL inhibition of a test compound of Formula (I) can be determined. Flag-tagged MAGL enzyme will be immobilized on anti-Flag beads. Immobilized enzyme will be incubated+/−inhibitor at a dose that produces complete inhibition. Colorimetric substrate (4-NPA) will be added and the reaction monitored on a plate reader for 30 minutes to verify complete inhibition. Immobilized enzyme will then be washed thoroughly to remove the inhibitor, and fresh substrate will be added. The reaction will be monitored for an additional 30 minutes; returning enzymatic activity will indicate reversibility of inhibition.
MAGL enzyme was incubated for 30 minutes in the presence of 40× the IC50 concentration of inhibitor. Enzyme+inhibitor mix was then diluted 40-fold so that the final concentration of the inhibitor equaled the IC50 concentration. Substrate was added and the reaction was monitored for 30 minutes.
Target sequence in this assay (Q99685 whole entry): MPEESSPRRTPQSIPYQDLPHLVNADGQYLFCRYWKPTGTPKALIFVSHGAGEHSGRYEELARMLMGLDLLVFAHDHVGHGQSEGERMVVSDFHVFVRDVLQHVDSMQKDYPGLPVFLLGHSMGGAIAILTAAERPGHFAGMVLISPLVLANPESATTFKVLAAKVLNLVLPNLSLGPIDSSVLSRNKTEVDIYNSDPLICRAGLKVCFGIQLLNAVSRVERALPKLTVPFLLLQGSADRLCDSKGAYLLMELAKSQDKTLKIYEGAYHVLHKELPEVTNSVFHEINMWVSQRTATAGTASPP

A: degree to which MAGL enzymatic activity returned following washout, 155:
Cc1cnn(C2CC3(C2)CN(C(=O)c2cc(O)ccc2F)C3)c1-c1cc(F)ccc1Cl [Compound 519, {6-[5-(2-chloro-5-fluorophenyl)-4-methyl-1-pyrazolyl]-2-aza-2-spiro[3.3]heptyl}(2-fluoro-5-hydroxyphenyl) methanone]

A: degree to which MAGL enzymatic activity returned following washout, 100:
Cc1cn(C2CC3(C2)CN(C(=O)c2cc(O)ccc2F)C3)nc1-c1cc(F)ccc1Cl [Compound 520, {6-[3-(2-chloro-5-fluorophenyl)-4-methyl-1-pyrazolyl]-2-aza-2-spiro[3.3]heptyl}(2-fluoro-5-hydroxyphenyl) methanone]

target: T1, human MAGL; test: MAGL inhibition potency assay with 4NPA substrate (methods of Table C); format: biochemical; conditions: Method 2: Cayman Chemical MAGL enzyme, 10 nM; read-out: MAGL Potency (Detection Method)
Target sequence in this assay (Q99685 2-303): as the sequence (Q99685 2-303) above

IC50, < 0.05 µM:
Cc1cc(C2CC3(C2)CN(C(=O)c2cc(O)c(F)cc2F)C3)n(-c2ccccc2C)n1 [Compound 126, (2,4-difluoro-5-hydroxyphenyl) (6-(3-methyl-1-(o-tolyl)-1H-pyrazol-5-yl)-2-azaspiro[3.3]heptan-2-yl) methanone]
Cc1cc(C2CC3(C2)CN(C(=O)c2cc(O)ccc2C#N)C3)n(-c2ccccc2C)n1 [Compound 128, 4-hydroxy-2-({6-[3-methyl-1-(o-tolyl)-5-pyrazolyl]-2-aza-2-spiro[3.3]heptyl}carbonyl)benzonitrile]
Cc1cc(C2CC3(C2)CN(C(=O)c2ccc(F)cc2OCC(F)(F)F)C3)n(-c2ccccc2C)n1 [Compound 178, [4-fluoro-2-(2,2,2-trifluoroethoxy)phenyl]{6-[3-methyl-1-(o-tolyl)-5-pyrazolyl]-2-aza-2-spiro[3.3]heptyl}methanone]

same assay, conditions: Method 2: Cayman Chemical MAGL enzyme, 10 nM; read-out: Potency (MAGL inhibition)

IC50, > 10 µM:
Cc1cc(C2CC3(C2)CN(C(=N)c2cc(O)ccc2F)C3)n(-c2ccccc2C)n1 [Compound 144]
COc1cc(F)ccc1C(=O)N1CC2(CC(c3cc(C)nn3-c3ccccc3C)C2)C1 [Compound 149]
Cc1cc(C2CC3(C2)CN(C2CCOc4ccccc42)C3)n(-c2ccccc2C)n1 (centres unmarked) [Compound 152]
Cc1cc(C2CC3(C2)CN([C@@H]2CCOc4ccccc42)C3)n(-c2ccccc2C)n1 [Compound 153]
Cc1cc(C2CC3(C2)CN([C@H]2COc4ccccc42)C3)n(-c2ccccc2C)n1 [Compound 154]
Cc1cc(C2CC3(C2)CN([C@@H]2COc4ccccc42)C3)n(-c2ccccc2C)n1 [Compound 155]
Cc1cc(C2CC3(C2)CN(C(=O)c2ccoc2)C3)n(-c2ccccc2C)n1 [Compound 179]
Cc1cc(C2CC3(C2)CN(C(=O)c2cccn2C)C3)n(-c2ccccc2C)n1 [Compound 181]
Cc1cc(C2CC3(C2)CN(C(=O)c2ccn(C)c2)C3)n(-c2ccccc2C)n1 [Compound 182]
Cc1cc(C2CC3(C2)CN(C(=O)c2ccc[nH]2)C3)n(-c2ccccc2C)n1 [Compound 183]
Cc1cc(C2CC3(C2)CN(C(=O)c2cc[nH]c2)C3)n(-c2ccccc2C)n1 [Compound 184]
CCOc1cc(F)ccc1C(=O)N1CC2(CC(C(=O)Nc3ccccc3C)C2)C1 [Compound 188]

same assay, conditions: Method 3: Reaction Biology MAGL enzyme, 10 nM; read-out: MAGL Potency (Detection Method)

IC50, < 0.05 µM:
Cc1cc(C2CC3(C2)CN(C(=O)c2cc(O)c(F)cc2F)C3)n(-c2ccccc2C)n1 [Compound 126, (2,4-difluoro-5-hydroxyphenyl) (6-(3-methyl-1-(o-tolyl)-1H-pyrazol-5-yl)-2-azaspiro[3.3]heptan-2-yl) methanone]
Cc1cc(C2CC3(C2)CN(C(=O)c2ccc(F)cc2OCC(F)(F)F)C3)n(-c2ccccc2C)n1 [Compound 178, [4-fluoro-2-(2,2,2-trifluoroethoxy)phenyl]{6-[3-methyl-1-(o-tolyl)-5-pyrazolyl]-2-aza-2-spiro[3.3]heptyl}methanone]

same assay, conditions: Method 4: Cayman Chemical MAGL enzyme, 15 nM; read-out: Potency (MAGL inhibition)

IC50, > 10 µM:
CCOc1cc(F)ccc1C(=O)N1CC2(CC(C(=O)N(C)c3cccnc3C)C2)C1 [Compound 198]

same assay, conditions: Method 5: Cayman Chemical MAGL enzyme, 25 nM; read-out: MAGL Potency (Detection Method)

IC50, < 0.05 µM:
Cc1cc(C2CC3(C2)CN(C(=O)c2ccc(F)cc2OCC(F)(F)F)C3)n(-c2ccccc2C)n1 [Compound 178, [4-fluoro-2-(2,2,2-trifluoroethoxy)phenyl]{6-[3-methyl-1-(o-tolyl)-5-pyrazolyl]-2-aza-2-spiro[3.3]heptyl}methanone]

same assay, conditions: Method 11: Reaction Biology MAGL enzyme, Conc 20 (text: 25 nM); read-out: Potency (MAGL inhibition)

IC50, > 10 µM:
Cc1cc(-c2cc(F)ccc2C)n(C2CC3(C2)CN(C(=O)c2ccc(F)cc2OC(F)(F)F)C3)n1 [Compound 427]

same assay, conditions: Method 12: Reaction Biology MAGL enzyme, 15 nM; read-out: Potency (MAGL inhibition)

IC50, > 10 µM:
Cc1cnn(C2CC3(C2)CN(C(=O)c2cc(O)ccc2F)C3)c1-c1ccccc1F [Compound 494]
Cc1cn(C2CC3(C2)CN(C(=O)c2cc(O)ccc2C(F)(F)F)C3)nc1-c1ccccc1F [Compound 495]
O=C(c1c(F)cccc1OC1CC1)N1CC2(CC(n3ncc(C(F)(F)F)c3-c3ccccc3F)C2)C1 [Compound 521]
